From patent US10781224B2, “Bis(oxymethyl)phosphinic acid and biogenic metal salts thereof as regulators of plant growth and development” (priority 2016, dated 2020)

How the values were obtained:
Type in all cases: in vivo
[1] = tested on: corn (Krasnodar 385 MV variety); test: Corn seed treatment with BHMPA salts: germination energy and germination rate
Method: (§1) Control—Soaking Seeds in Water;
(§2) Experimental versions—soaking seeds in BHMPA solutions and solutions of BHMPA Ca, Mg, Na, Co, Mn, Cu, and Zn salts at 1·10^−6-1·10^−12% concentrations (doses). The studies were conducted in laboratory in Petri dishes; seed bed—two layers of filter paper. 50 seeds soaked in water (control) and in the solutions of the tested compounds (experimental) were placed into each dish. Wheat, corn, and rice seeds were exposed for one hour.
(§3) Analysis was conducted according to the government standards GOST 12038-84 “Crop seeds. Technical conditions for determining the germination energy and germination rate”, GOST 12044-93 “Crop seeds. Methods for determining disease contamination.”
(§4) Seed germination energy and rate were calculated in percent as an arithmetic mean of the four experimental results (germination energy on the 4th day, wheat germination on the 8th day, rice and corn germination—on the 7th day). Germination was determined based on the germinating power indicators (length of the roots and sprouts and their wet and dry mass per 100 shoots).
(§5) The effect of pre-sowing seed treatment with the claimed BHMPA salts of biogenic metals was studied on winter wheat (Vershin variety), corn (Krasnodar 385 MV variety), and rice (Diamant variety).

[2] = tested on: rice (Diamant variety); test: Rice seed treatment with BHMPA salts: germination energy and germination rate; conditions: for Germination energy, % / Germination rate, %: rice seed treatment
Method: as §1, §2, §3, §4, §5

[3] = tested on: winter wheat (Vershin variety); test: Winter wheat seed treatment with BHMPA salts: germination energy and germination rate
Method: as §1, §2, §3, §4, §5

[4] = comparative study vs Melaphen, 1·10^−7% solution
[5] = seed treatment, concentration 1 · 10^−6%
[6] = seed treatment, concentration 1 · 10^−7%
[7] = seed treatment, concentration 1 · 10^−8%
[8] = seed treatment, concentration 1 · 10^−9%
[9] = seed treatment, concentration 1 · 10^−10%
[10] = seed treatment, concentration 1 · 10^−11%
[11] = seed treatment, concentration 1 · 10^−12%
[12] = winter wheat Vershin, 1·10^−6% solution
[13] = winter wheat Vershin, 1·10^−7% solution
[14] = winter wheat Vershin, 1·10^−8% solution
[15] = winter wheat Vershin, 1·10^−9% solution
[16] = winter wheat Vershin, 1·10^−10% solution
[17] = winter wheat Vershin, 1·10^−11% solution
[18] = winter wheat Vershin, 1·10^−12% solution
[19] = winter wheat, comparative study vs Melaphen, 1·10^−10% solution
[20] = comparative study vs Melaphen, 1·10^−9% solution
[21] = winter wheat, comparative study vs Melaphen, 1·10^−11% solution

`O.O.O=P([O-])(CO)CO.O=P([O-])(CO)CO.[Co+2]` [Co-salt, Cobalt BHMPA Salt] was tested, and the Germination energy ([1]; 1·10^−6% solution) was 80.0%, the Germination rate ([1]; 1·10^−6% solution) was 82.2% and the Germination energy ([1]; 1·10^−7% solution) was 84.3%. For the same compound, the Germination rate ([1]; 1·10^−7% solution) was 90.0%, the Germination rate ([1]; 1·10^−7% solution, listed as Co) was 86.7% and the Germination energy ([1]; 1·10^−8% solution) was 82.0%. The Germination rate ([1]; 1·10^−8% solution) was 84.7%, the Germination energy ([1]; 1·10^−9% solution) was 80.7% and the Germination rate ([1]; 1·10^−9% solution) was 83.0%. It also gave a Germination energy ([1]; 1·10^−10% solution) of 79.2%, a Germination rate ([1]; 1·10^−10% solution) of 81.7% and a Germination energy ([1]; 1·10^−11% solution) of 78.0%. For the same compound, the Germination rate ([1]; 1·10^−11% solution) was 80.8%, the Germination energy ([1]; 1·10^−12% solution) was 76.8% and the Germination rate ([1]; 1·10^−12% solution) was 79.2%. The Germination energy [1, 4] was 87.0%, the Germination rate [1, 4] was 96.7% and the “Germination energy, %” value ([2]; solution 1 · 10^−9%) was 87.5%. The “Germination rate, %” value ([2]; solution 1 · 10^−9%) was 94.5%, the Germination energy ([2]; rice, 1·10^−9% solution) was 86.3% and the Germination rate ([2]; rice, 1·10^−9% solution) was 93.7%. The Germination energy [2, 5] was 80.7%, the Germination rate [2, 5] was 84.0% and the Germination energy [2, 6] was 83.0%. For the same compound, the Germination rate [2, 6] was 87.0%, the Germination energy [2, 7] was 84.0% and the Germination rate [2, 7] was 90.3%. For the same compound, the Germination energy [2, 8] was 86.3%, the Germination rate [2, 8] was 93.7% and the Germination energy [2, 9] was 85.7%. For the same compound, the Germination rate [2, 9] was 91.3%, the Germination energy [2, 10] was 84.0% and the Germination rate [2, 10] was 88.0%. For the same compound, the Germination energy [2, 11] was 81.3%, the Germination rate [2, 11] was 85.3% and the Germination energy [3, 12] was 89.2%. The Germination rate [3, 12] was 93.0%, the Germination energy [3, 13] was 91.4% and the Germination rate [3, 13] was 94.0%. The Germination energy [3, 14] was 92.8%, the Germination rate [3, 14] was 96.0% and the Germination energy [3, 15] was 94.3%. The Germination rate [3, 15] was 97.3%, the Germination energy [3, 16] was 95.6% and the Germination rate [3, 16] was 98.7%. For the same compound, the Germination energy [3, 17] was 94.7%, the Germination rate [3, 17] was 97.3% and the Germination energy [3, 18] was 92.0%. It also gave a Germination rate [3, 18] of 94.7%, a Germination energy [3, 19] of 93.7% and a Germination rate [3, 19] of 97.3%.
`O=P([O-])(CO)CO.O=P([O-])(CO)CO.[Mg+2]` [Mg-salt, Magnesium BHMPA Salt] gave a Germination energy ([1]; 1·10^−6% solution) of 82.3%, a Germination rate ([1]; 1·10^−6% solution) of 84.7% and a Germination energy ([1]; 1·10^−7% solution) of 85.3%. It also gave a Germination rate ([1]; 1·10^−7% solution) of 89.0%, a Germination energy ([1]; 1·10^−8% solution) of 87.7% and a Germination rate ([1]; 1·10^−8% solution) of 93.3%. For the same compound, the Germination energy ([1]; 1·10^−9% solution) was 89.71%, the Germination rate ([1]; 1·10^−9% solution) was 95.8% and the Germination energy ([1]; 1·10^−9% solution, listed as Mg) was 89.7%. The Germination energy ([1]; 1·10^−10% solution) was 90.3%, the Germination rate ([1]; 1·10^−10% solution) was 93.7% and the Germination energy ([1]; 1·10^−11% solution) was 88.0%. For the same compound, the Germination rate ([1]; 1·10^−11% solution) was 91.7%, the Germination energy ([1]; 1·10^−12% solution) was 86.7% and the Germination rate ([1]; 1·10^−12% solution) was 90.8%. The Germination energy [1, 20] was 86.0%, the Germination rate [1, 20] was 95.7% and the “Germination energy, %” value ([2]; solution 1 · 10^−10%) was 87.5%. The “Germination rate, %” value ([2]; solution 1 · 10^−10%) was 94.0%, the Germination energy ([2]; rice, 1·10^−10% solution) was 86.3% and the Germination rate ([2]; rice, 1·10^−10% solution) was 92.7%. For the same compound, the Germination energy [2, 5] was 77.7%, the Germination rate [2, 5] was 83.3% and the Germination energy [2, 6] was 80.3%. For the same compound, the Germination rate [2, 6] was 85.0%, the Germination energy [2, 7] was 81.7% and the Germination rate [2, 7] was 87.3%. The Germination energy [2, 8] was 84.3%, the Germination rate [2, 8] was 90.7% and the Germination energy [2, 9] was 86.3%. For the same compound, the Germination rate [2, 9] was 92.7%, the Germination energy [2, 10] was 83.3% and the Germination rate [2, 10] was 89.3%. For the same compound, the Germination energy [2, 11] was 79.3%, the Germination rate [2, 11] was 84.7% and the Germination energy [3, 12] was 85.0%. For the same compound, the Germination rate [3, 12] was 89.3%, the Germination energy [3, 13] was 88.4% and the Germination rate [3, 13] was 92.0%. It also gave a Germination energy [3, 14] of 88.8%, a Germination rate [3, 14] of 92.0% and a Germination energy [3, 15] of 89.3%. For the same compound, the Germination rate [3, 15] was 93.0%, the Germination energy [3, 16] was 89.9% and the Germination rate [3, 16] was 93.3%. For the same compound, the Germination energy [3, 17] was 93.1%, the Germination rate [3, 17] was 96.0% and the Germination energy [3, 18] was 90.0%. The Germination rate [3, 18] was 93.3%, the Germination energy [3, 21] was 93.3% and the Germination rate [3, 21] was 96.7%.
